From patent publication US11279683B2, “Thiophene derivatives as antiviral agents” (ENYO PHARMA, priority 2016, dated 2022)

test system: H1N1 (influenza A/New Caledonia/20/99); test: microbe, parasite or virus in culture; type: cell-based; conditions: Influenza A virus, H1N1, A549, 48 h

| SMILES | IC50 [µM] |
| --- | --- |
| O=C(Nc1ccc(Cl)cc1)c1c(NC(=O)C2COC2)sc2c1CCC2 [Compound 94, N-[3-[(4-chlorophenyl)carbamoyl]-5,6-dihydro-4H-cyclopenta[b]thiophen-2-yl]oxetane-3-carboxamide] | 12.9 |
| O=C(NCC1CCCCC1)c1c(NC(=O)C2CCCCC2C(=O)O)sc2c1CCC2 (stereo not drawn) [Compound 24, 2-[[3-(Cyclohexylmethylcarbamoyl)-5,6-dihydro-4H-cyclopenta[b]thiophen-2-yl]carbamoyl]cyclohexanecarboxylic acid] | 12.3 |
| O=C(NCc1cccc(Cl)c1)c1c(NC(=O)C2CCCCC2C(=O)O)sc2c1CCC2 (stereo not drawn) [Compound 11, 2-[[3-[(3-Chlorophenyl)methylcarbamoyl]-5,6-dihydro-4H-cyclopenta[b]thiophen-2-yl]carbamoyl]cyclohexanecarboxylic acid] | 8.63 |
| O=C(Nc1ccc(Cl)cc1)c1c(NC(=O)C2COCCN2)sc2c1CCC2 (stereo not drawn) [Compound 103, N-[3-[(4-chlorophenyl)carbamoyl]-5,6-dihydro-4H-cyclopenta[b]thiophen-2-yl]morpholine-3-carboxamide] | 24.2 |
| Cc1cc(NC(=O)c2c(NC(=O)C3CCCCC3C(=O)O)sc3c2CCC3)ccc1Cl (stereo not drawn) [Compound 13, 2-[[3-[(4-Chloro-3-methyl-phenyl)carbamoyl]-5,6-dihydro-4H-cyclopenta[b]thiophen-2-yl]carbamoyl]cyclohexanecarboxylic acid] | 4.68 |
| NS(=O)(=O)N1CCC1C(=O)Nc1sc2c(c1C(=O)Nc1ccc(Cl)cc1)CCC2 (stereo not drawn) [Compound 102, N-[3-[(4-chlorophenyl)carbamoyl]-5,6-dihydro-4H-cyclopenta[b]thiophen-2-yl]-1-sulfamoyl-azetidine-2-carboxamide] | 20.9 |
| Cc1cc(Cl)ccc1NC(=O)c1c(NC(=O)C2CCCCC2C(=O)O)sc2c1CCC2 (stereo not drawn) [Compound 7, 2-[[3-[(4-Chloro-2-methyl-phenyl)carbamoyl]-5,6-dihydro-4H-cyclopenta[b]thiophen-2-yl]carbamoyl]cyclohexanecarboxylic acid] | 10.1 |
| NS(=O)(=O)N1CCCC(C(=O)Nc2sc3c(c2C(=O)Nc2ccc(Cl)cc2)CCC3)C1 (stereo not drawn) [Compound 83, N-[3-[(4-chlorophenyl)carbamoyl]-5,6-dihydro-4H-cyclopenta[b]thiophen-2-yl]-1-sulfamoyl-piperidine-3-carboxamide] | 5.05 |
| Cc1cccc(NC(=O)c2c(NC(=O)C3CCCCC3C(=O)O)sc3c2CCCC3)c1 (stereo not drawn) [Compound 69, 2-[[3-(m-Tolylcarbamoyl)-4,5,6,7-tetrahydrobenzothiophen-2-yl]carbamoyl]cyclohexanecarboxylic acid] | 13.9 |
| O=C(CC1CCOCC1)Nc1sc2c(c1C(=O)Nc1ccc(Cl)cc1)CCC2 [Compound 81, N-(4-chlorophenyl)-2-[(2-tetrahydropyran-4-ylacetyl)amino]-5,6-dihydro-4H-cyclopenta[b]thiophene-3-carboxamide] | 3.9 |
| CS(=O)(=O)N1CCOC(C(=O)Nc2sc3c(c2C(=O)Nc2ccc(Cl)cc2)CCC3)C1 (stereo not drawn) [Compound 86, N-[3-[(4-chlorophenyl)carbamoyl]-5,6-dihydro-4H-cyclopenta[b]thiophen-2-yl]-4-methylsulfonyl-morpholine-2-carboxamide] | 6.3 |
| CCc1c(C)sc(NC(=O)C2CCCCC2C(=O)O)c1C(=O)Nc1cccc(Cl)c1 (stereo not drawn) [Compound 70, 2-[[3-[(3-Chlorophenyl)carbamoyl]-4-ethyl-5-methyl-2-thienyl]carbamoyl]cyclohexanecarboxylic acid] | 14.7 |
| O=C(Nc1cccc(C(F)(F)F)c1)c1c(NC(=O)C2CCCCC2C(=O)O)sc2c1CCC2 (stereo not drawn) [Compound 77, 2-[[3-[[3-(Trifluoromethyl)phenyl]carbamoyl]-5,6-dihydro-4H-cyclopenta[b]thiophen-2-yl]carbamoyl]cyclohexanecarboxylic acid] | 6.78 |
| O=C(O)CC1(CC(=O)Nc2sc3c(c2C(=O)Nc2ccc(Cl)cc2)CCC3)CCCC1 [Compound 45, 2-[1-[2-[[3-[(4-Chlorophenyl)carbamoyl]-5,6-dihydro-4H-cyclopenta[b]thiophen-2-yl]amino]-2-oxo-ethyl]cyclopentyl]acetic acid] | 8.1 |
| CS(=O)(=O)N1CCCC(C(=O)Nc2sc3c(c2C(=O)Nc2ccc(Cl)cc2)CCC3)C1 (stereo not drawn) [Compound 95, N-[3-[(4-chlorophenyl)carbamoyl]-5,6-dihydro-4H-cyclopenta[b]thiophen-2-yl]-1-methylsulfonyl-piperidine-3-carboxamide] | 13.7 |
| CC1OCc2sc(NC(=O)C3CCCCC3C(=O)O)c(C(=O)Nc3ccc(Cl)cc3)c21 (stereo not drawn) [Compound 39, 2-[[3-[(4-Chlorophenyl)carbamoyl]-4-methyl-4,6-dihydrothieno[2,3-c]furan-2-yl]carbamoyl]cyclohexanecarboxylic acid] | 53.5 |
| O=C(Nc1ccc(Cl)cc1)c1c(NC(=O)[C@H]2CCCC[C@H]2C(=O)NO)sc2c1CCC2 (stereo in doubt) [Compound 90, N-(4-chlorophenyl)-2-[[2-(hydroxycarbamoyl)cyclohexanecarbonyl]amino]-5,6-dihydro-4H-cyclopenta[b]thiophene-3-carboxamide] | 9 |
| O=C(Nc1ccc(Cl)cc1)c1c(NC(=O)C2CCCCC2CO)sc2c1CCC2 (stereo not drawn) [Compound 56, N-(4-Chlorophenyl)-2-[[2-(hydroxymethyl)cyclohexanecarbonyl]amino]-5,6-dihydro-4H-cyclopenta[b]thiophene-3-carboxamide] | 24 |
| COc1ccc(NC(=O)c2c(NC(=O)C3CCCCC3C(=O)O)sc3c2CCC3)cc1 (stereo not drawn) [Compound 76, 2-[[3-[(4-Methoxyphenyl)carbamoyl]-5,6-dihydro-4H-cyclopenta[b]thiophen-2-yl]carbamoyl]cyclohexanecarboxylic acid] | 14.1 |
| O=C(NC1CCCCC1)c1c(NC(=O)C2CCCCC2C(=O)O)sc2c1CCC2 (stereo not drawn) [Compound 65, 2-[[3-(Cyclohexylcarbamoyl)-5,6-dihydro-4H-cyclopenta[b]thiophen-2-yl]carbamoyl]cyclohexanecarboxylic acid] | 17.7 |
| O=C(Nc1ccc(Cl)cc1)c1c(NC(=O)C2CCCC(C(=O)O)C2)sc2c1CCC2 (stereo not drawn) [Compound 99, 3-[[3-[(4-chlorophenyl)carbamoyl]-5,6-dihydro-4H-cyclopenta[b]thiophen-2-yl]carbamoyl]cyclohexanecarboxylic acid] | 16.6 |
| O=C(Nc1ccc(Cl)nc1)c1c(NC(=O)C2CCCCC2C(=O)O)sc2c1CCC2 (stereo not drawn) [Compound 2, 2-[[3-[(6-Chloro-3-pyridyl)carbamoyl]-5,6-dihydro-4H-cyclopenta[b]thiophen-2-yl]carbamoyl]cyclohexanecarboxylic acid] | 18 |
| O=C(O)c1ccccc1C(=O)Nc1sc2c(c1C(=O)Nc1ccc(Cl)cc1)CCC2 [Compound 44, 2-[[3-[(4-Chlorophenyl)carbamoyl]-5,6-dihydro-4H-cyclopenta[b]thiophen-2-yl]carbamoyl]benzoic acid] | 21.6 |
| O=C(Nc1ccc(Cl)c(C(F)(F)F)c1)c1c(NC(=O)C2CCCCC2C(=O)O)sc2c1CCC2 (stereo not drawn) [Compound 6, 2-[[3-[[4-Chloro-3-(trifluoromethyl)phenyl]carbamoyl]-5,6-dihydro-4H-cyclopenta[b]thiophen-2-yl]carbamoyl]cyclohexanecarboxylic acid] | 4.68 |
